Measurements: publication PMC5460604 (Chemical Science, 2016)
Read-outs that look alike come from different tables or passages of the source.

How the values were obtained:
ER-MT = target: T1, ER-MT (Neomoorella thermoacetica, UniProt O52935); assay: whole-cell biotransformation, LC-MS; format: cell-based; settings: 0.7 mM substrate; E. coli expressing ER
T1 sequence (O52935 1-667): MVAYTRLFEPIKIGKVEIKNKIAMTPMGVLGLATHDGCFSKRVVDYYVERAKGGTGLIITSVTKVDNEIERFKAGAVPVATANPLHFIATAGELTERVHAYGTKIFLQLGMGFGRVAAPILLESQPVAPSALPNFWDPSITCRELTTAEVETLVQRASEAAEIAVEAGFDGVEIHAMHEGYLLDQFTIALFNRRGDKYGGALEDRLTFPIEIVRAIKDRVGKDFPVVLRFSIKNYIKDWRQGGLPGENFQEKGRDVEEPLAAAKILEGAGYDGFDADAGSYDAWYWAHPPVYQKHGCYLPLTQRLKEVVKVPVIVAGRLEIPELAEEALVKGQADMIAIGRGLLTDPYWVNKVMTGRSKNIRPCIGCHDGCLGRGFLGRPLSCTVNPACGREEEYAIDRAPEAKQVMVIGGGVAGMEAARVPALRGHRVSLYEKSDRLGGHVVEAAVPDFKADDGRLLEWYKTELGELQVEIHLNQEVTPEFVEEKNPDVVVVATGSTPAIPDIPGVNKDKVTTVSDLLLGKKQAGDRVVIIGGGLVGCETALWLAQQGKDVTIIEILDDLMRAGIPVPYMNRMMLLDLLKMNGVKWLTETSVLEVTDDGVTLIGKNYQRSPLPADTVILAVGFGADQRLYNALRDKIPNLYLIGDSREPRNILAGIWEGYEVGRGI

ER-BC (Bcoa0725) = settings: NADH, anaerobic

## O=C(O)/C=C/C=C/C(=O)O [trans,trans-muconic acid]
ER-MT
  whole-cell biotransformation, LC-MS: the ER-BC, ER-CA and ER-MT strains hydrogenated both isomers to adipic acid

## O=C(O)/C=C/c1ccccc1 [compound 4, trans-cinnamic acid]
ER-BC (Bcoa0725); substrate inhibition
  Km: 0.68 mM

## O=C(O)C=CCCC(=O)O (mixture of isomers) [compound 5, 2-hexenedioic acid]
ER-BC (Bcoa0725); 14% isopropanol, sigmoidal kinetics
  Km: 18.9 mM
